Reference: patent US8119647B2, “Fused pyrimidineone compounds as TRPV3 modulators” (Glenmark Pharmaceuticals S.A., priority 2008, dated 2012)
Read-outs that look alike come from different tables or passages of the source.

Target: T1, Human TRPV3 (Homo sapiens, UniProt Q8NET8)
T1 construct: expressed in transfected cells; host or cells: CHO cells (G-418 selection)
T1 sequence (Q8NET8 1-790): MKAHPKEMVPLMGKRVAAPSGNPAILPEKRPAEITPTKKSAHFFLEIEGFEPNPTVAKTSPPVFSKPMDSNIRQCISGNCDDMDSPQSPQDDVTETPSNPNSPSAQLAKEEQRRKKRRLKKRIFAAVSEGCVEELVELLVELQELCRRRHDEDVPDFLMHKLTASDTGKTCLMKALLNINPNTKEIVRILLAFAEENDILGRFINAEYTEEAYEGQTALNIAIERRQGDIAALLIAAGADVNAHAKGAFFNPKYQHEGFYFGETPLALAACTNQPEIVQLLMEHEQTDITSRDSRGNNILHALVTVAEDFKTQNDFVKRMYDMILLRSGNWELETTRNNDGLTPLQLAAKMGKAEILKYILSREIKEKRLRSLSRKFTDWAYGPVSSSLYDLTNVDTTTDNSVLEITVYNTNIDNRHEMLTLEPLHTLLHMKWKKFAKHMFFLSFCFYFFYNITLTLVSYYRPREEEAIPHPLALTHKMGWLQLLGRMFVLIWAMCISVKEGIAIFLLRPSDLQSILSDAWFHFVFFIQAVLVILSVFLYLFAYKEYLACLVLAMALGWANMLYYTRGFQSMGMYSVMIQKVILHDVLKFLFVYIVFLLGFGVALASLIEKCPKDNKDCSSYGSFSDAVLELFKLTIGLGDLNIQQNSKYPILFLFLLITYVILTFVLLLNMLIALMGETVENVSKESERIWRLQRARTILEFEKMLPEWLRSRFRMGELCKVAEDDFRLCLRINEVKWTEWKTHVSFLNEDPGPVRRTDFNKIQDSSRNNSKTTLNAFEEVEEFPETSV
Test: Screening for TRPV3 antagonist using the 45Calcium uptake assay (inhibition of 2-APB induced cellular uptake of radioactive calcium)
Type: cell-based
Details: for Percentage inhibition at 1.0 μM / inhibition at 1 µM: 1.0 μM test compound; for inhibition at 1 µM: read-out: Percentage inhibition at 1.0 μM; for inhibition at 10 µM: read-out: Percentage inhibition at 10.0 μM; for IC50: class symbols
From the text: The illustrative examples of the present invention are screened for TRPV3 activity according to a modified procedure described in Tóth, A., Kedei, N., Wang, Y. and Blumberg, P. M. Life Sciences (2003), 73, 487-498. The screening of the compounds can be carried out by other methods and procedures known to a person skilled in the art. Such screening methods may be found in (a) Hu, H.-Z. et al. J. Biol. Chem. (2004), 279, 35741-35747; (b) Smith, G. D. et al. Nature (2002), 418, 186-190; (c) Peier, A. M. et al. Science (2002), 296, 2046-2049.
Screening for TRPV3 Antagonist Using the ^45Calcium Uptake Assay:
The inhibition of TRPV3 receptor activation was followed as inhibition of 2-aminoethoxydiphenylborate (2-APB) induced cellular uptake of radioactive calcium. Test compounds were dissolved in dimethyl sulfoxide (DMSO) to prepare 20 mM stock solution and then diluted using plain medium with DMEM/F-12 containing 1.8 mM CaCl2 to get desired concentration. Final concentration of DMSO in the reaction was 0.5% (v/v). Human TRPV3 expressing CHO cells were grown in DMEM/F-12 medium with 10% FBS, 1% penicillin-streptomycin solution, 400 μg/ml of G-418. Cells were seeded 24 h prior to the assay in 96 well plates so as to get ˜50,000 cells per well on the day of experiment. Cells were treated with test compounds for 10 minutes followed by addition of 2-APB at a final concentration of 500 μM and 5 μCi/ml ^45Ca^+2 for 4 minutes. Cells were washed and lysed using buffer containing 1% Triton X-100, 0.1% deoxycholate and 0.1% SDS. Radioactivity in the lysate was measured in Packardt Top count after addition of liquid scintillant. Concentration response curves were plotted as a % of maximal response obtained in the absence of test antagonist. IC50 value was calculated from concentration response curve by nonlinear regression analysis using GraphPad PRISM software.
Percentage inhibition at concentrations of 1.0 μM and 10.0 μM are given in the table along with IC50 (nM) values for selected examples.

[1] = human TRPV3 expressing CHO cells, 2-APB 500 μM
[2] = 10.0 μM test compound, human TRPV3 expressing CHO cells, 2-APB 500 μM

| Molecule | Percentage inhibition at 1.0 μM [1] [%] | Percentage inhibition at 10.0 μM [2] [%] | inhibition at 1 µM [1] [%] | inhibition at 10 µM [2] [%] | IC50 [1] [nM] | Percentage inhibition at 10.0 μM [%] |
| --- | --- | --- | --- | --- | --- | --- |
| 7-[(E)-2-(4-Chlorophenyl)vinyl]-6-phenyl-5H-[1,3]thiazolo[3,2-a]pyrimidin-5-one [Example 1] | 6.9 | 14.4 | – | – | – | – |
| 7-[(E)-2-{(3-Cyanopropoxy)-3-methoxy}phenylvinyl]-6-[4-(trifluoromethoxy)phenyl]-5H-[1,3]thiazolo[3,2-a]pyrimidin-5-one [Example 74] | 30.20 | 86.42 | – | – | – | – |
| COc1cccc(/C=C/c2nc3sccn3c(=O)c2-c2ccccc2)c1OCC1CC1 [Example 2, 7-{(E)-2-[2-(Cyclopropylmethoxy)-3-methoxyphenyl]vinyl}-6-phenyl-5H-[1,3]thiazolo[3,2-a]pyrimidin-5-one] | – | – | 10.4 | 73.1 | 1000 to 10000 | – |
| COc1cccc(/C=C/c2nc3sccn3c(=O)c2-c2ccc(F)nc2)c1OCC1CC1 [Example 3] | 20.1 | 89.3 | – | – | – | – |
| COc1cccc(/C=C/c2nc3sccn3c(=O)c2-c2ccc(C(C)(C)C)cc2)c1OCC1CC1 [Example 4] | – | – | 66.5 | 84.7 | 250 to 500 | – |
| COc1cccc(/C=C/c2nc3sccn3c(=O)c2-c2ccc(C(C)=O)cc2)c1OCC1CC1 [Example 5] | 60.3 | 95.1 | – | – | – | – |
| COc1cccc(/C=C/c2nc3sccn3c(=O)c2-c2ccc(N(C)C)cc2)c1OCC1CC1 [Example 6, 6-(4-Dimethylaminophenyl)-7-[(E)-2-(2-cyclopropylmethoxy-3-methoxyphenyl]-1-ethenyl]-5H-[1,3]thiazolo[3,2-a]pyrimidin-5-one] | – | – | 76 | 95.3 | 250 to 500 | – |
| COc1cccc(/C=C/c2nc3sccn3c(=O)c2-c2ccc(O)cc2)c1OCC1CC1 [Example 7, 7-[(E)-2-(2-Cyclopropylmethoxy-3-methoxyphenyl)-1-ethenyl]-6-(4-hydroxyphenyl)-5H-[1,3]thiazolo[3,2-a]pyrimidin-5-one] | – | – | 12 | 69.3 | – | – |
| COc1cccc(/C=C/c2nc3sccn3c(=O)c2-c2cc(F)cc(F)c2)c1OCC1CC1 [Example 8] | 2.0 | 20.5 | – | – | – | – |
| CCCCOc1c(/C=C/c2nc3sccn3c(=O)c2-c2ccc(C#N)cc2)cccc1OC [Example 9, 4-{7-[(E)-2-(2-Butoxy-3-methoxyphenyl)-1-ethenyl]-5-oxo-5H-[1,3]thiazolo[3,2-a]pyrimidin-6-yl}benzonitrile] | – | – | 71.6 | 91.9 | 500 to 1000 | – |
| CCCCCOc1c(/C=C/c2nc3sccn3c(=O)c2-c2ccc(C#N)cc2)cccc1OC [Example 10, 4-{7-[(E)-2-(3-Methoxy-2-pentyloxyphenyl)-1-ethenyl]-5-oxo-5H-[1,3]-thiazolo[3,2-a]pyrimidin-6-yl}benzonitrile] | – | – | 74.8 | 92.9 | 250 to 500 | – |
| COc1cccc(/C=C/c2nc3sccn3c(=O)c2-c2ccc(C#N)cc2)c1OCCC(C)C [Example 11, 4-{7-[(E)-2-(2-Isopentyloxy-3-methoxyphenyl)-1-ethenyl]-5-oxo-5H-[1,3]thiazolo[3,2-a]pyrimidin-6-yl}benzonitrile] | – | – | 76.2 | 90 | < 250 | – |
| COc1cccc(/C=C/c2nc3sccn3c(=O)c2-c2ccc(C#N)cc2)c1OCC(C)C [Example 12, 4-{7-[(E)-2-(2-Isobutoxy-3-methoxyphenyl)-1-ethenyl]-5-oxo-5H-[1,3]thiazolo[3,2-a]-pyrimidin-6-yl}benzonitrile] | – | – | 74.7 | 94.8 | < 250 | – |
| COc1cccc(/C=C/c2nc3sccn3c(=O)c2-c2ccc(C#N)cc2)c1OCC(C)(C)C [Example 13, 4-{7-[(E)-2-(3-Methoxy-2-neopentyloxyphenyl)-1-ethenyl]-5-oxo-5H-[1,3]thiazolo[3,2-a]pyrimidin-6-yl}benzonitrile] | – | – | 91.9 | 95.4 | < 250 | – |
| COCCOc1c(/C=C/c2nc3sccn3c(=O)c2-c2ccc(C#N)cc2)cccc1OC [Example 14, 4-{7-[(E)-2-(3-Methoxy-2-(2-methoxyethoxy)phenyl]-1-ethenyl}-5-oxo-5H-[1,3]-thiazolo[3,2-a]pyrimidin-6-yl}benzonitrile] | – | – | 41 | 88.1 | – | – |
| CCOCCOc1c(/C=C/c2nc3sccn3c(=O)c2-c2ccc(C#N)cc2)cccc1OC [Example 15, 4-{7-[(E)-2-(2-Ethoxyethoxy-3-methoxyphenyl]-1-ethenyl}-5-oxo-5H-[1,3]thiazolo[3,2-a]pyrimidin-6-yl}benzonitrile] | – | – | 73.1 | 94.8 | 500 to 1000 | – |
| COc1cccc(/C=C/c2nc3sccn3c(=O)c2-c2ccc(C#N)cc2)c1OCC1CC1 [Example 16, 4-{7-[(E)-2-[2-(Cyclopropylmethoxy)-3-methoxyphenyl]-1-ethenyl}-5-oxo-5H-[1,3]thiazolo[3,2-a]pyrimidin-6-yl}benzonitrile] | – | – | 59.3 | 91.7 | 500 to 1000 | – |
| COc1cccc(/C=C/c2nc3sccn3c(=O)c2-c2ccc(C#N)cc2)c1OCC1CCC1 [Example 17, 4-{7-[(E)-2-(2-Cyclobutylmethoxy-3-methoxy)phenyl-1-ethenyl]-5-oxo-5H-[1,3]-thiazolo[3,2-a]pyrimidin-6-yl}benzonitrile] | – | – | 73 | 91.1 | < 250 | – |
| COc1cccc(/C=C/c2nc3sccn3c(=O)c2-c2ccc(C#N)cc2)c1OC1CCCC1 [Example 18, 4-{7-[(E)-2-(2-Cyclopentyloxy-3-methoxy)phenyl-1-ethenyl]-5-oxo-5H-[1,3]thiazolo-[3,2-a]pyrimidin-6-yl}benzonitrile] | 85.0 | 94.2 | – | – | < 250 | – |
| COc1cccc(/C=C/c2nc3sccn3c(=O)c2-c2ccc(C#N)cc2)c1OCC1CCCCC1 [Example 19, 4-{7-[(E)-2-(2-Cyclohexylmethoxy-3-methoxy)phenyl-1-ethenyl]-5-oxo-5H-[1,3]-thiazolo[3,2-a]pyrimidin-6-yl}benzonitrile] | – | – | 74.6 | 88.4 | 250 to 500 | – |
| COc1cccc(/C=C/c2nc3sccn3c(=O)c2-c2ccc(C#N)cc2)c1OCc1cccc(F)c1 [Example 20] | 56.5 | 79.3 | – | – | – | – |
| COc1cccc(/C=C/c2nc3sccn3c(=O)c2-c2ccc(C#N)cc2)c1OCc1ccccn1 [Example 21] | 14.88 | – | – | – | – | 11.60 |
| COc1cccc(/C=C/c2nc3sccn3c(=O)c2-c2ccc(C#N)cc2)c1OCCCC#N [Example 22, 4-{7-[(E)-2-{2-(3-Cyanopropoxy)-3-(methoxyphenyl)-1-ethenyl]}-5-oxo-5H-[1,3]-thiazolo[3,2-a]pyrimidin-6-yl}benzonitrile] | 16.1 | 24.5 | – | – | – | – |
